What was measured:
αS aggregation = target: T1, αS aggregation (Homo sapiens, UniProt P37840); test: ThT aggregation kinetic assay, de novo, WT αS; format: biochemical; settings: 100 μM analog, 100 μM αS
T1 construct: made in house; host or cells: Escherichia coli BL21(DE3), periplasm
Experimental: The aggregation kinetics of αS was monitored using ThT fluorescence assay (λex = 450 nm and λem = 485 nm). To study the aggregation kinetics of αS, the ThT dye at a final concentration of 50 μM was added to 100 μM αS solution in the aggregation buffer (1 x PBS buffer) with and without various concentrations of SK-129 in a Costar black 96–well plate (Corning Inc., Kennebunk, ME). The small molecules were dissolved in dimethyl sulfoxide (DMSO; final DMSO concentration = 0.5%, v/v). The final volume in each well was 140 μL. The plate was incubated at 37 °C with 16 min shaking (434 rpm) and 44 min without shaking in an Infinite M200PRO plate reader (Tecan, Männedorf, Switzerland) and fluorescence was recorded after every hour. We used two methods to quantify the effect of molecules on the aggregation of αS; either we have reported the t50 (time required to reach 50% fluorescence of ThT), which was extracted by fitting the ThT curve as a sigmoidal fit or the absolute ThT fluorescence intensity was reported. […] In the second method, we determined the final ThT fluorescence intensity for the aggregation of αS/Aβ42(with or without ligands) as an average of three separate experiments. […]
The aggregation kinetics of WT αS and αS variants were monitored and was carried out with a slightly modified protocol. […] The aggregation of proteins was monitored at the indicated times (See the main manuscript). […]

[1] = target: T2, αS seed-catalyzed aggregation (Homo sapiens, UniProt P37840); test: Seed-catalyzed ThT aggregation assay (10% WT αS seeds), WT αS; format: biochemical; settings: equimolar ratio
T2 construct: made in house; host or cells: Escherichia coli BL21(DE3), periplasm
Experimental: Seed-catalyzed αS aggregation assay was performed similarly to a previously described protocol. Briefly, 100 μM monomeric WT αS solution (200 μL, in 1x PBS buffer) was placed into a ThermoMixer (Eppendorf, Hamberg, Germany) and shook for five days at a rate of […] and 37 °C. The solution was sonicated for 10 min and used as αS seeds. The seed-catalyzed aggregation of WT αS/ αS variants was performed by adding αS seeds (10% seeds, αS in monomeric concentration, v/v) into 140 μL of fresh 100 μM WT αS/ αS variants solution and aggregation was started with constant shaking at a rate of […] and 37 °C. The aggregation of proteins was monitored at the indicated times (See the main manuscript) using the above-mentioned method.
The ThT aggregation assay for each protein (WT αS and αS variants) in the presence of SK-129 was carried out the above-mentioned method. SK-129 (from 10 mM stock solution in DMSO) was added at an equimolar ratio (1% DMSO, v/v) to the proteins at the start of the aggregation experiment. The concentration of DMSO was kept constant (1%, v/v) in protein (WT αS and αS variants), control, and protein+molecule solutions. The kinetic profiles of protein aggregation were processed using OriginPro software (Version 9.1). Kinetic curves were fit using a built-in sigmoidal fit in the OriginLab.

antagonist activity against αS aggregation among analogs (αS aggregation): most potent antagonist
effect on seed-catalyzed aggregation [1]: wholly suppressed
SMILES: COC(=O)c1cc(OCC(=O)O)c2cccc(NC(=O)c3cc(OC(C)C)c4cccc(NC(=O)c5cc(OCC(=O)O)c6cccc(NC(=O)c7cc(OC(C)C)c8cccc([N+](=O)[O-])c8n7)c6n5)c4n3)c2n1 [SK-129]
